# Measured values taken from patent US6420570B1, “Psoralen compounds” (priority 1993, dated 2002).
# Structures can show the parent of a compound that is named as a salt. Where two headings read alike, the source gives them in different places.
# What was measured:
# TA100 = tested on: TA100
# Experimental: (§1) In this example the compounds of the present invention are tested for their dark mutagenicity using an Ames assay. The procedures used for the Salmonella mutagenicity test as described in detail by Maron and Ames were followed exactly. Maron, D. M. and B. N. Ames, Mutation Research 113:173 (1983). A brief description for each procedure is given here. The tester strains TA97a, TA98, TA100, TA102, TA1537 and TA1538 were obtained from Dr. Ames. TA97a, TA98, TA1537 and TA1538 are frameshift tester strains. TA100 and TA102 are base-substitution tester strains. Upon receipt each strain was cultured under a variety of conditions to confirm the genotypes specific to the strains.
# (§2) The first tests done with the strains were to determine the range of spontaneous reversion for each of the strains. With each mutagenicity experiment the spontaneous reversion of the tester strains to histidine independence was measured and expressed as the number of spontaneous revertants per plate. This served as the background controls.
# (§3) For all experiments, the pre-incubation procedure was used. In this procedure one vial of each tester strain was thawed and 20 μL of this culture was added to 6 mL of Oxoid Nutrient Broth #2. This solution was allowed to shake for 10 hours at 37° C. In the pre-incubation procedure, 0.1 mL of this overnight culture was added to each of the required number of sterile test tubes. To half of the tubes 0.5 mL of a 10% S-9 solution containing Aroclor 1254 induced rat liver extract (Molecular Toxicology Inc., Annapolis, MD), and MgCl2, KCl, glucose-6-phosphate, NADP, and sodium phosphate buffer (Sigma, St. Louis. Mo.) were added. To the other half of the tubes 0.5 mL of 0.2M sodium phospate buffer, pH 7.4, was used in place of the S-9 mixture (the -S9 samples) Finally 0.1 mL of the test solution containing either 0.0.1, 0.5, 1, 5, 10, 50, 100, 250, or 500 μg/mL of the test compound was added. The 0.7 mL mixture pre-incubated while shaking for 20 minutes at 37° C. After shaking, 2 mL of molten top agar supplemented with histidine and biotin were added to the 0.7 mL mixture and immediately poured onto a minimal glucose agar plate (volume of base agar was 20 ml.). The top agar was allowed 30 minutes to solidify and then the plates were inverted and incubated for 44 hours at 37° C. After incubation the number of revertant colonies on each plate were counted. […] (“n” represents the number of replicates performed for each data point.)
# (§4) Maron and Ames (1983) describe the conflicting views with regard to the statistical treatment of data generated from the test.
# TA1538 = experiment: Ames assay, dark mutagenicity, strain TA1538
# Experimental: as §1, §2, §3, §4
# [1] = tested on: Salmonella tester strains; experiment: Ames assay, dark mutagenicity, overall over tester strains; settings: base-substitution tester strains TA100 and TA102
# Experimental: as §1, §2, §3, §4
# cell-free virus (HIV) = assay type: cell-based; settings: 1 minute irradiation
# Experimental: Pathogen inactivation efficiency of several compounds of the present invention was evaluated by examining the ability of the compounds to inactivate cell-free virus (HIV). Inactivation of cell-free HIV was performed as follows.
# As in the R17 assay, small aliquots of the compounds listed in TABLES 8 and 9, below, at the concentrations listed in the table, were added to stock HIV-1 to a total of 0.5 mL. The stock HIV (10^5-10^7 plaque forming units/mL) was in DMEM/15% FBS. […] Controls included HIV-1 stock only, HIV-1 plus UVA only, and HIV-1 plus the highest concentration of each psoralen tested, with no UVA. Post irradiation, all samples were stores frozen at −70° C. until assayed for infectivity by a microtiter plaque assay. Aliquots for measurement of residual HIV infectivity in the samples treated with a compound of the present invention were withdrawn and cultured.
# Residual HIV infectivity was assayed using an MT-2 infectivity assay. […] The assay medium was 85% DMEM (with a high glucose concentration) containing 100 μg of streptomycin, 100 U of penicillin, 50 μg of gentamicin, and 1 μg of amphotericin B per mL, 15% FBS and 2 μg of Polybrene (Sigma Chemical Co., St. Louis, Mo.) per mL. Test and control samples from the inactivation procedure were diluted in 50% assay medium and 50% normal human pooled plasma. The samples were serially diluted directly in 96-well plates (Corning Glass Works, corning, N.Y.). The plates were mixed on an oscillatory shaker for 30 seconds and incubated at 37° C. in a 5% CO2 atmosphere for 1 to 18 hours. […] After an additional 1 hour of incubation at 37° C. in 5% CO2, 0.075 mL of assay medium containing 1.6% SeaPlaque agarose (FMC Bioproducts, Rockland, me.) and prewarmed to 38.5° C. was added to each well. The plates were kept at 37° C. for a few minutes until several plates had accumulated and then centrifuged in plate carriers at 600×g for 20 minutes in a centrifuge precooled to 10° C. In the centrifuge, cell monolayers formed prior to gelling of the agarose layer. The plates were incubated for 5 days at 37° C. in 5% CO2 and stained by the addition of 0.05 mL of 50 μg/mL propidium iodide (Sigma Chemical Co.) in phosphate-buffered saline (pH 7.4) to each well. After 24 to 48 hours, the red fluorescence-stained microplaques were visualized by placing the plates on an 8,000 μW/cm^2 304 nm UV light box (Fotodyne, Inc., New Berlin, Wis.). The plaques were counted at a magnification of ×20 to ×25 through a stereomicroscope. “n” represents the number of runs for which the data point is an average.
# R17 = R17 inactivation at constant concentration, varying doses of UV light; assay type: cell-based, bacteriophage R17; settings: UV doses 1.0 to 3.0 J/cm^2, FIGS. 11-17
# Experimental: Compounds of the present invention were also tested at a constant concentration for varying doses of UV light. Three sets of 1.5 mL tubes were prepared containing 0.6 mL aliquots of R17 in DMEM (prepared as described above). The compound tested was added at the desired concentration and the samples were vortexed. The samples were then irradiated at intervals of 1.0 J/cm^2, until 3.0 J/cm^2 was reached. Between each 1.0 J/cm^2 interval, 100 μL was removed from each sample and placed in the first corresponding dilution tube, then five sequential dilutions were performed for each compound tested, at all 3 irradiation doses, as described above in this example.
# Then 50 μL of Hfr 3000 bacteria was added to each tube, 3 mL of top agar was added and the tube contents were vortexed. The contents of each tube was poured into its own LB plate and the plates were incubated overnight at 37° C. Plaques were counted by visual inspection the following morning.
# TA1537 = experiment: Ames assay, dark mutagenicity, strain TA1537
# Experimental: as §1, §2, §3, §4
# TA98 = experiment: Ames assay, dark mutagenicity, strain TA98
# Experimental: as §1, §2, §3, §4
# [2] = Table 8, HIV starting titer approximately 5 logs
# [3] = Table 9, HIV starting titer approximately 5.4 logs
compound,measurement,setting,value
"Cc1oc2c(C)c3oc(=O)cc(C)c3cc2c1CNCCCCN [Compound 6, 4′-(6-Aminohexyl-2-aza)-4,5′,8-trimethylpsoralen Dihydrochloride]",revertant colonies per plate,"TA100; TA100 +S9, 5 μg/plate",12
same,revertant colonies per plate,"TA100; TA100 +S9, 10 μg/plate",−5
same,revertant colonies per plate,"TA100; TA100 −S9, 5 μg/plate",−32
same,revertant colonies per plate,"TA100; TA100 −S9, 10 μg/plate",3
same,revertant colonies per plate,"TA1538; TA1538 +S9, 5 μg/plate",0
same,revertant colonies per plate,"TA1538; TA1538 +S9, 10 μg/plate",8
same,revertant colonies per plate,"TA1538; TA1538 −S9, 5 μg/plate",−5
same,base-substitution mutagenicity,[1],no base substitution mutagenicity
same,HIV Log Kill 16 μM,cell-free virus (HIV); [2],2.0 log
same,HIV Log Kill 32 μM,cell-free virus (HIV); [2],3.1 log
same,HIV Log Kill 64 μM,cell-free virus (HIV); [2],>3.8 log
same,HIV Log Kill 16 μM,cell-free virus (HIV); [3],2.1 log
same,HIV Log Kill 32 μM,cell-free virus (HIV); [3],3.2 log
same,HIV Log Kill 64 μM,cell-free virus (HIV); [3],>2.8 log
same,R17 inactivation compared with AMT,R17,more efficient at inactivating R17 than was AMT
same,revertant colonies per plate,"TA1537; TA1537 +S9, 10 μg/plate",−1
same,revertant colonies per plate,"TA1537; TA1537 +S9, 50 μg/plate",17
same,revertant colonies per plate,"TA1537; TA1537 +S9, 250 μg/plate",99
same,revertant colonies per plate,"TA1537; TA1537 +S9, 500 μg/plate",369
same,dose showing a response,"TA1537; TA1537, in the presence of S9",50 μg/plate
same,revertant colonies per plate,"TA1537; TA1537 −S9, 10 μg/plate",141
same,revertant colonies per plate,"TA1537; TA1537 −S9, 50 μg/plate",2010
same,revertant colonies per plate,"TA1537; TA1537 −S9, 100 μg/plate",795
same,revertant colonies per plate,"TA1537; TA1537 −S9, 250 μg/plate",228
same,revertant colonies per plate,"TA1537; TA1537 −S9, 500 μg/plate",43
same,revertant colonies per plate,"TA98; TA98 +S9, 10 μg/plate",−5
same,revertant colonies per plate,"TA98; TA98 +S9, 250 μg/plate",40
same,revertant colonies per plate,"TA98; TA98 +S9, 500 μg/plate",52
same,revertant colonies per plate,"TA98; TA98 −S9, 10 μg/plate",12
same,revertant colonies per plate,"TA98; TA98 −S9, 50 μg/plate",12
same,revertant colonies per plate,"TA98; TA98 −S9, 100 μg/plate",22
same,revertant colonies per plate,"TA98; TA98 −S9, 250 μg/plate",12
same,revertant colonies per plate,"TA98; TA98 −S9, 500 μg/plate",9
